Consider 34 compounds from patent publication US10556889B1, “Salvinorin derivatives” (Blue Sky Pharmaceuticals, LLC, priority 2018, dated 2020).

Experiment [1] addresses T1, uOR (Mus musculus, UniProt P42866). In words: Agonist induced ERK 1/2 phosphorylation (efficacy and potency relative to DAMGO).
In experiment [2] the target is T1, uOR. Briefly: β-arrestin recruitment to uOR / receptor internalization. On the set-up: expressed in transfected cells. It counts as cell-based. The source says:
The data provided in Tables 1A and 1B below were obtained using standard analytical techniques known to those skilled in the art. Such techniques are described in detail in C.
[…] were transiently transfected (electroporation) with combinations of cDNA for hemagglutinin (HA-N terminus)-tagged uOR, beta-arrestin2 tagged with green fluorescent protein, mouse uOR tagged at the C terminus with yellow fluorescent protein and GRK-2. […] After addition of drug, cells were visualized using confocal microscopy. Multiple cells were recorded per dish after more than four separate transfection experiments—representative cells are shown in the manuscript.
The “β-arrestin Recruitment EC50±SEM” column in Table 2 below represents the degree to which each tested compound recruited beta-arrestin to interact with uOR. As will be appreciated by those skilled in the art, EC50 refers to the concentration of a drug which induces a response halfway between the baseline and maximum after a specified exposure time. In this instance, lower values indicate greater potency of the molecule, and this is […].
As will also be understood by those skilled in the art, “Max Fold Efficacy” refers to the maximum signal/background ratio that an agonist will induce or, conversely, that an antagonist will inhibit an agonist from inducing a response. In Table 2 below, the “Max Fold Efficacy” column indicates the strength of the signal increase over the control/background measurement for uOR receptor internalization at the E.C. 50.
In general terms: Recruitment of arrestin is a read-out of receptor activation apart from second messengers.

Setting [3] is: maximum signal/background ratio for uOR receptor internalization at the EC50.
Setting [4] is: recruitment of beta-arrestin to interact with uOR, bound given in μM, read-out: β-arrestin Recruitment EC50 ± SEM.

Read-outs that look alike come from different tables or passages of the source. Where only a bound is given, the exact number is not on record here.

T1 sequence (P42866 whole entry): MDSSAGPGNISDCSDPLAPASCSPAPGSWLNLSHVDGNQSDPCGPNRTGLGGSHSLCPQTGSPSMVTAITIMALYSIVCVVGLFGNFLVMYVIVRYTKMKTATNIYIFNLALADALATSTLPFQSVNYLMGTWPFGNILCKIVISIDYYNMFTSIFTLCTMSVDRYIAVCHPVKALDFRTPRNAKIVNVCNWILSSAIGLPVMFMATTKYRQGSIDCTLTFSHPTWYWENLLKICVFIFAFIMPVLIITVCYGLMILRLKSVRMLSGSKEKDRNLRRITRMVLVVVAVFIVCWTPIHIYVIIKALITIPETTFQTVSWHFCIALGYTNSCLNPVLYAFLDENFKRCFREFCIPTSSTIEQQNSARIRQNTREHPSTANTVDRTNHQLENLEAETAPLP

By EC50 is commonly meant the concentration giving half of the maximal effect. With `COC(=O)[C@@H]1C[C@H](NC(=O)c2ccccc2)C(=O)[C@H]2[C@@]1(C)CC[C@H]1C(=O)O[C@H](c3ccoc3)C[C@]21C`, the figures for the EC50 in experiment [1] and in experiment [2] were 0.232 nM and 9.19 ± 2.75 µM, respectively. Further, in experiment [2] (setting [3]), the “Max Fold Efficacy” value worked out at 21.73.
On to `COC(=O)[C@@H]1C[C@H](OC(=O)c2ccc(C(F)(F)F)cc2)C(=O)[C@H]2[C@@]1(C)CC[C@H]1C(=O)O[C@H](c3ccoc3)C[C@]21C`, for which the EC50 in experiment [1] is 930 nM; in experiment [2] (setting [4]) it was > 10 µM.
On to `COC(=O)[C@@H]1C[C@H](OC(=O)c2ccccc2)C(=O)[C@H]2[C@@]1(C)CC[C@H]1C(=O)O[C@H](c3ccoc3)C[C@]21C`, for which the EC50 in experiment [1] was 1110 nM; in experiment [2] (setting [4]) it was > 10 µM. Further, the “Max Fold Efficacy” value in experiment [2] (setting [3]) came out at 2.4.
On to `COC(=O)[C@@H]1C[C@H](OC(=O)Nc2ccccc2)C(=O)[C@H]2[C@@]1(C)CC[C@H]1C(=O)O[C@H](c3ccoc3)C[C@]21C`, for which the EC50 in experiment [1] is 1200 nM; in experiment [2] (setting [4]) it was > 10 µM.
`COC(=O)[C@@H]1C[C@H](OC(=O)c2ccc(F)cc2)C(=O)[C@H]2[C@@]1(C)CC[C@H]1C(=O)O[C@H](c3ccoc3)C[C@]21C`: the values for the EC50 in experiment [1] and in experiment [2] (setting [4]) were 1640 nM and > 10 µM, respectively. In addition, in experiment [2] (setting [3]), the “Max Fold Efficacy” value was determined as 2.2.
Regarding `COC(=O)[C@@H]1C[C@H](OC(=O)Nc2ccc(Cl)c(Cl)c2)C(=O)[C@H]2[C@@]1(C)CC[C@H]1C(=O)O[C@H](c3ccoc3)C[C@]21C`, the results for the EC50 in experiment [1] and in experiment [2] (setting [4]) were 1850 nM and > 10 µM, respectively.
For `COC(=O)[C@@H]1C[C@H](OC(=O)Nc2ccc(SC(F)(F)F)cc2)C(=O)[C@H]2[C@@]1(C)CC[C@H]1C(=O)O[C@H](c3ccoc3)C[C@]21C`, in that order: 2300 nM and > 10 µM.
Regarding `COC(=O)[C@@H]1C[C@H](OC(=O)c2ccc(OC)cc2)C(=O)[C@H]2[C@@]1(C)CC[C@H]1C(=O)O[C@H](c3ccoc3)C[C@]21C`, the half-maximal effective concentration (EC50) was 3500 nM in experiment [1] and > 10 µM in experiment [2] (setting [4]). The “Max Fold Efficacy” value in experiment [2] (setting [3]) was determined as 3.1.
Consider `COC(=O)[C@@H]1C[C@H](NC(=O)Nc2ccc(C#N)cc2)C(=O)[C@H]2[C@@]1(C)CC[C@H]1C(=O)O[C@H](c3ccoc3)C[C@]21C`, for which the EC50 was 4290 nM in experiment [1] and > 10 µM in experiment [2] (setting [4]).
For `COC(=O)[C@@H]1C[C@H](NC(=O)NS(=O)(=O)c2ccc(Cl)cc2)C(=O)[C@H]2[C@@]1(C)CC[C@H]1C(=O)O[C@H](c3ccoc3)C[C@]21C`, in that order: > 10000 nM and > 10 µM.
In the case of `CCc1ncc(C(=O)O[C@H]2C[C@@H](C(=O)OC)[C@]3(C)CC[C@H]4C(=O)O[C@H](c5ccoc5)C[C@]4(C)[C@H]3C2=O)cn1`, the values for the EC50 in experiment [1] and in experiment [2] (setting [4]) were 917 nM and > 10 µM, respectively. In addition, the “Max Fold Efficacy” value in experiment [2] (setting [3]) is reported as 5.1.
For `COC(=O)[C@@H]1C[C@H](OC(=O)c2cnc(C)cn2)C(=O)[C@H]2[C@@]1(C)CC[C@H]1C(=O)O[C@H](c3ccoc3)C[C@]21C`, in that order: 1280 nM, > 10 µM and 1.8.
For `COC(=O)[C@@H]1C[C@H](OC(=O)Nc2ncc(C)s2)C(=O)[C@H]2[C@@]1(C)CC[C@H]1C(=O)O[C@H](c3ccoc3)C[C@]21C`, the EC50 in experiment [1] is 1280 nM; in experiment [2] (setting [4]), > 10 µM.
As for `COC(=O)[C@@H]1C[C@H](OC(=O)c2cc(C)on2)C(=O)[C@H]2[C@@]1(C)CC[C@H]1C(=O)O[C@H](c3ccoc3)C[C@]21C`, the EC50 in experiment [1] is 1750 nM; in experiment [2] (setting [4]), > 10 µM. Moreover, in experiment [2] (setting [3]), the “Max Fold Efficacy” value was found to be 1.3.
For `COC(=O)[C@@H]1C[C@H](OC(=O)c2ccon2)C(=O)[C@H]2[C@@]1(C)CC[C@H]1C(=O)O[C@H](c3ccoc3)C[C@]21C`, in that order: 3780 nM, > 10 µM and 1.
As to `COC(=O)[C@@H]1C[C@H](OC(=O)c2nc(C)co2)C(=O)[C@H]2[C@@]1(C)CC[C@H]1C(=O)O[C@H](c3ccoc3)C[C@]21C`, the EC50 in experiment [1] is 5990 nM; in experiment [2] (setting [4]), > 10 µM.
For `CCc1ncc(NC(=O)O[C@H]2C[C@@H](C(=O)OC)[C@]3(C)CC[C@H]4C(=O)O[C@H](c5ccoc5)C[C@]4(C)[C@H]3C2=O)cn1`, in that order: 7460 nM and > 10 µM.
In the case of `COC(=O)[C@@H]1C[C@H](OC(=O)Nc2ccc(C#N)cc2)C(=O)[C@H]2[C@@]1(C)CC[C@H]1C(=O)O[C@H](c3ccoc3)C[C@]21C` [Formula Ia-i], the EC50 in experiment [1] was 35.5 nM; in experiment [2] it was 9.85 ± 0.153 µM. The “Max Fold Efficacy” value in experiment [2] (setting [3]) was determined as 9.5.
For `COC(=O)[C@@H]1C[C@H](OC(=O)Nc2ccc(C)cc2)C(=O)[C@H]2[C@@]1(C)CC[C@H]1C(=O)O[C@H](c3ccoc3)C[C@]21C` [Formula Ia-ii], the EC50 in experiment [1] is 108 nM; in experiment [2] (setting [4]), > 10 µM. Further, the “Max Fold Efficacy” value in experiment [2] (setting [3]) came out at 8.8.
For `COC(=O)[C@@H]1C[C@H](OC(=O)Nc2ccc(Cl)cc2)C(=O)[C@H]2[C@@]1(C)CC[C@H]1C(=O)O[C@H](c3ccoc3)C[C@]21C` [Formula Ia-iii], in that order: 146 nM, > 10 µM and 7.6.
For `COC(=O)[C@@H]1C[C@H](OC(=O)Nc2ccc(F)cc2)C(=O)[C@H]2[C@@]1(C)CC[C@H]1C(=O)O[C@H](c3ccoc3)C[C@]21C` [Formula Ia-iv], in that order: 156 nM, > 10 µM and 4.3.
As to `COC(=O)[C@@H]1C[C@H](OC(=O)Nc2ccc(OC(F)F)cc2)C(=O)[C@H]2[C@@]1(C)CC[C@H]1C(=O)O[C@H](c3ccoc3)C[C@]21C` [Formula Ia-v], the figures for the EC50 in experiment [1] and in experiment [2] (setting [4]) were 162 nM and > 10 µM, respectively. Also, the “Max Fold Efficacy” value in experiment [2] (setting [3]) is reported as 9.5.
Turning to `COC(=O)[C@@H]1C[C@H](OC(=O)Nc2ccc(C(F)(F)F)cc2)C(=O)[C@H]2[C@@]1(C)CC[C@H]1C(=O)O[C@H](c3ccoc3)C[C@]21C` [Formula Ia-vi], the results for the EC50 in experiment [1] and in experiment [2] (setting [4]) were 327 nM and > 10 µM, respectively. The “Max Fold Efficacy” value in experiment [2] (setting [3]) is given as 5.1.
For `COC(=O)[C@@H]1C[C@H](OC(=O)Nc2ccc(F)c(F)c2)C(=O)[C@H]2[C@@]1(C)CC[C@H]1C(=O)O[C@H](c3ccoc3)C[C@]21C` [Formula Ia-vii], in that order: 412 nM, > 10 µM and 2.2.
For `COC(=O)[C@@H]1C[C@H](OC(=O)Nc2ccc(Cl)cc2F)C(=O)[C@H]2[C@@]1(C)CC[C@H]1C(=O)O[C@H](c3ccoc3)C[C@]21C` [Formula Ia-viii], in that order: 522 nM, > 10 µM and 2.3.
For `COC(=O)[C@@H]1C[C@H](NC(=O)NC(=O)c2ccccc2)C(=O)[C@H]2[C@@]1(C)CC[C@H]1C(=O)O[C@H](c3ccoc3)C[C@]21C` [Formula Ib-i], in that order: 610 nM, > 10 µM and 3.14.
On to `COC(=O)[C@@H]1C[C@H](OC(=O)NC(=O)c2ccccc2)C(=O)[C@H]2[C@@]1(C)CC[C@H]1C(=O)O[C@H](c3ccoc3)C[C@]21C` [Formula Ib-ii], for which the EC50 in experiment [1] is 633 nM; in experiment [2] (setting [4]) it was > 10 µM. Further, the “Max Fold Efficacy” value in experiment [2] (setting [3]) was 4.8.
In the case of `COC(=O)[C@@H]1C[C@H](OC(=O)Nc2csc(C)n2)C(=O)[C@H]2[C@@]1(C)CC[C@H]1C(=O)O[C@H](c3ccoc3)C[C@]21C` [Formula Ic-i], the EC50 in experiment [1] was 0.854 nM; in experiment [2] it was 2.07 ± 0.649 µM. Further, in experiment [2] (setting [3]), the “Max Fold Efficacy” value was 31.3.
With `COC(=O)[C@@H]1C[C@H](OC(=O)Nc2nc(C)cs2)C(=O)[C@H]2[C@@]1(C)CC[C@H]1C(=O)O[C@H](c3ccoc3)C[C@]21C` [Formula Ic-ii], the EC50 in experiment [1] was 25.2 nM; in experiment [2] (setting [4]) it was > 10 µM. Besides, the “Max Fold Efficacy” value in experiment [2] (setting [3]) is recorded as 3.8.
For `COC(=O)[C@@H]1C[C@H](OC(=O)Nc2cnc(C)cn2)C(=O)[C@H]2[C@@]1(C)CC[C@H]1C(=O)O[C@H](c3ccoc3)C[C@]21C` [Formula Ic-iii], in that order: 35.7 nM, > 10 µM and 9.5.
For `COC(=O)[C@@H]1C[C@H](OC(=O)Nc2cnc(C)nc2)C(=O)[C@H]2[C@@]1(C)CC[C@H]1C(=O)O[C@H](c3ccoc3)C[C@]21C` [Formula Ic-iv], in that order: 79.1 nM, > 10 µM and 2.8.
For `COC(=O)[C@@H]1C[C@H](OC(=O)Nc2cc(C)on2)C(=O)[C@H]2[C@@]1(C)CC[C@H]1C(=O)O[C@H](c3ccoc3)C[C@]21C` [Formula Ic-v], in that order: 118 nM, > 10 µM and 2.4.
For `COC(=O)[C@@H]1C[C@H](OC(=O)c2cnc(C)nc2)C(=O)[C@H]2[C@@]1(C)CC[C@H]1C(=O)O[C@H](c3ccoc3)C[C@]21C` [Formula Id-i], the concentration giving a half-maximal response (EC50) in experiment [1] was 2.85 nM; in experiment [2] (setting [4]) it was > 10 µM. The “Max Fold Efficacy” value in experiment [2] (setting [3]) is 4.2.
Turning to Met-Enkephalin [reference compound], in experiment [2], the “Max Fold Efficacy” value is 38.3.
